target: T1, TYK2 JH2 (Homo sapiens, UniProt P29597); assay: TYK2 JH2 binding assay (KINOMEscan KdELECT competitive binding); details: TYK2 JH2 domain, DiscoverX KINOMEscan KdELECT (Assay A); read-out: Biochemical TYK2_DiscoverX_JH2_BND_Kd
T1 construct: purchased DiscoverX (KINOMEscan KdELECT service); host or cells: E. coli BL21-derived (T7 phage display) or HEK-293
Description: Assay A: TYK2 JH2 Binding Assay
Competitive binding studies using TKY2 JH2-domain fragments were conducted by DiscoverX using the KINOMEscan (KdELECT) platform. Kinase-tagged T7 phage strains were prepared in an E. coli host derived from the BL21 strain. E. coli were grown to log-phase and infected with […] and incubated with shaking at 32° C. until lysis. The lysates were centrifuged and filtered to remove cell debris. The remaining kinases were produced in HEK-293 cells and subsequently tagged with DNA for qPCR detection. Streptavidin-coated magnetic beads were treated with biotinylated small molecule ligands for 30 minutes at room temperature to generate affinity resins for kinase assays. The liganded beads were blocked with excess biotin and washed with blocking buffer (SeaBlock (Pierce), 1% BSA, 0.05% Tween 20, 1 mM DTT) to remove unbound ligand and to reduce non-specific binding. Binding reactions were assembled by combining kinases, liganded affinity beads, and test compounds in 1× binding buffer (20% SeaBlock, 0.17×PBS, 0.05% Tween 20, 6 mM DTT). Test compounds were prepared as 111× stocks in 100% DMSO. Kds were determined using an 11-point 3-fold compound dilution series with three DMSO control points. All compounds for Kd measurements are distributed by acoustic transfer (non-contact dispensing) in 100% DMSO. The compounds were then diluted directly into the assays such that the final concentration of DMSO was 0.9%. All reactions performed in polypropylene 384-well plate. Each was a final volume of 0.02 ml. The assay plates were incubated at room temperature with shaking for 1 hour and the affinity beads were washed with wash buffer (1×PBS, 0.05% Tween 20). The beads were then re-suspended in elution buffer (1×PBS, 0.05% Tween 20, 0.5 μM non-biotinylated affinity ligand) and incubated at room temperature with shaking for 30 minutes. The kinase concentration in the eluates was measured by qPCR.

T1 sequence (P29597 589-875 limits assumed): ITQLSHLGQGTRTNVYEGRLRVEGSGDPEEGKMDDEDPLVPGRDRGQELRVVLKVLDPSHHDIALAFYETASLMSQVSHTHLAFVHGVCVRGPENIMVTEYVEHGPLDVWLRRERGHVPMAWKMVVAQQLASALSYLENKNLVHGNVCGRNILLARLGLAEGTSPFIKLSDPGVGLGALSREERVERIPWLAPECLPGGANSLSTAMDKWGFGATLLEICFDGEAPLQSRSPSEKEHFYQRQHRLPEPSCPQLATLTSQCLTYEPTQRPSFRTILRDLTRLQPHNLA

Kd	Compound
≤ 100 nM	CCOC(=O)[C@H]1C[C@@H]1C(=O)Nc1cc2c(-c3nc4cc(OC)ccc4o3)cnc(NC)c2cn1 (racemic) [Example 392, ethyl 2-((5-(5-methoxybenzo[d]oxazol-2-y1)-8-(methylamino)-2,7-naphthyridin-3-yl)carbamoyl)cyclopropane-1-carboxylate]
100 to 1000 nM	CNc1ncc(-c2nc3cc(OCc4ccccc4)ccc3o2)c2cc(Nc3ccc(OCc4ccccc4)cn3)ncc12 [Example 430, 4-(5-(benzyloxy)benzo[d]oxazol-2-yl)-N^6-(5-(benzyloxy)pyridin-2-yl)-N^1-methyl-2,7-naphthyridine-1,6-diamine]

same assay, conditions: TYK2 JH2 domain, KINOMEscan KdELECT (Assay A); read-out: Biochemical TYK2_DiscoverX_JH2_BND_Kd

Kd	Compound
100 to 1000 nM	CNc1ncc(C(=O)N2CCCC2)c2cc(NC(=O)C3CC3)ncc12 [Example 840, N-(8-(methylamino)-5-(pyrrolidine-1-carbonyl)-2,7-naphthyridin-3-yl)cyclopropanecarboxamide]
100 to 1000 nM	CNc1ncc(-c2cccn3nc(Br)nc23)c2cc(NC(=O)C3CC3)ncc12 [Example 856, N-(5-(2-bromo-[1,2,4]triazolo[1,5-a]pyridin-8-yl)-8-(methylamino)-2,7-naphthyridin-3-yl)cyclopropanecarboxamide]
≤ 100 nM	CNc1ncc(CCc2cccc(S(C)(=O)=O)c2)c2cc(NC(=O)C3CC3)ncc12 [Example 838, N-(8-(methylamino)-5-(3-(methylsulfonyl)phenethyl)-2,7-naphthyridin-3-yl)cyclopropanecarboxamide]
100 to 1000 nM	CNc1ncc(-c2nnc3n2CCC3)c2cc(NC(=O)C3CC3)ncc12 [Example 854, N-(5-(6,7-dihydro-5H-pyrrolo[2,1-c][1,2,4]triazol-3-yl)-8-(methylamino)-2,7-naphthyridin-3-yl)cyclopropanecarboxamide]
≤ 100 nM	CNc1ncc(-c2noc(C)n2)c2cc(NC(=O)C3CC3)ncc12 [Example 837, N-(5-(5-methyl-1,2,4-oxadiazol-3-yl)-8-(methylamino)-2,7-naphthyridin-3-yl)cyclopropanecarboxamide]

same assay, conditions: TYK2 JH2 domain, KINOMEscan KdELECT (Assay A); read-out: Biochemical TYK2_JH2_Kd

Kd	Compound
100 to 1000 nM	CNc1ncc(-c2ccccc2)c2cc(NC3COC3)ncc12 [Example 97, N^1-methyl-N^6-(oxetan-3-yl)-4-phenyl-2,7-naphthyridine-1,6-diamine]
≤ 100 nM	CNc1ncc(Oc2ccccn2)c2cc(NC(=O)C3CC3)ncc12 [Example 62, N-(8-(methylamino)-5-(pyridin-2-yloxy)-2,7-naphthyridin-3-yl)cyclopropanecarboxamide]
≤ 100 nM	CNc1ncc(-c2nc3ccc(F)cn3n2)c2cc(NC(=O)C3CC3)ncc12 [Example 191, N-(5-(6-fluoro-[1,2,4]triazolo[1,5-a]pyridin-2-yl)-8-(methylamino)-2,7-naphthyridin-3-yl)cyclopropanecarboxamide]
≤ 100 nM	CNc1ncc(-c2cc(-c3ccccc3)ns2)c2cc(NC(=O)C3CC3)ncc12 [Example 146, N-(8-(methylamino)-5-(3-phenylisothiazol-5-yl)-2,7-naphthyridin-3-yl)cyclopropanecarboxamide]
≤ 100 nM	CNc1ncc(-c2nc3cc(N4CCCC(N5CC(F)(F)C5)C4)ccn3n2)c2cc(NC(=O)C3CC3)ncc12 (stereo not drawn) [Example 190, N-(5-(7-(3-(3,3-difluoroazetidin-1-yl)piperidin-1-yl)-[1,2,4]triazolo[1,5-a]pyridin-2-yl)-8-(methylamino)-2,7-naphthyridin-3-yl)cyclopropanecarboxamide]
1000 to 10000 nM	CNc1ncc(N2Cc3cnccc3C2=O)c2cc(NC(=O)C3CC3)ncc12 [Example 59, N-(8-(methylamino)-5-(1-oxo-1,3-dihydro-2H-pyrrolo[3,4-c]pyridin-2-yl)-2,7-naphthyridin-3-yl)cyclopropanecarboxamide]
≤ 100 nM	CNc1ncc(-c2nc3cc(OC)ccc3o2)c2cc(NC(=O)C3CC3)ncc12 [Example 182, N-(5-(5-methoxybenzo[d]oxazol-2-yl)-8-(methylamino)-2,7-naphthyridin-3-yl)cyclopropanecarboxamide]
1000 to 10000 nM	CNc1ncc(C(=O)N2CCC(Oc3ccccc3)CC2)c2cc(NC(=O)C3CC3)ncc12 [Example 121, N-(8-(methylamino)-5-(4-phenoxypiperidine-1-carbonyl)-2,7-naphthyridin-3-yl)cyclopropanecarboxamide]
100 to 1000 nM	CNc1ncc(N2CCCS2(=O)=O)c2cc(NC(=O)C3CC3)ncc12 [Example 58, N-(5-(1,1-dioxidoisothiazolidin-2-yl)-8-(methylamino)-2,7-naphthyridin-3-yl)cyclopropanecarboxamide]
100 to 1000 nM	CSc1ncc(-c2ccccc2)c2cc(NC(=O)C3CC3)ncc12 [Example 159, N-(8-(methylthio)-5-phenyl-2,7-naphthyridin-3-yl)cyclopropanecarboxamide]
1000 to 10000 nM	CNc1ncc(-c2ccccc2)c2cc(NCc3ccccn3)ncc12 [Example 100, N^1-methyl-4-phenyl-N^6-(pyridin-2-ylmethyl)-2,7-naphthyridine-1,6-diamine]
100 to 1000 nM	CNc1ncc(C(=O)N2CCCCC2)c2cc(NC(=O)C3CC3)ncc12 [Example 122, N-(8-(methylamino)-5-(piperidine-1-carbonyl)-2,7-naphthyridin-3-yl)cyclopropanecarboxamide]
≤ 100 nM	CNc1ncc(-c2nc3c(F)cccn3n2)c2cc(NC(=O)C3CC3)ncc12 [Example 193, N-(5-(8-fluoro-[1,2,4]triazolo[1,5-a]pyridin-2-yl)-8-(methylamino)-2,7-naphthyridin-3-yl)cyclopropanecarboxamide]
≤ 100 nM	CNc1ncc(-c2nc3cccc(F)n3n2)c2cc(NC(=O)C3CC3)ncc12 [Example 192, N-(5-(5-fluoro-[1,2,4]triazolo[1,5-a]pyridin-2-yl)-8-(methylamino)-2,7-naphthyridin-3-yl)cyclopropanecarboxamide]
100 to 1000 nM	CNc1ncc(-n2ccc(=O)cc2)c2cc(NC(=O)C3CC3)ncc12 [Example 60, N-(8-(methylamino)-5-(4-oxopyridin-1(4H)-yl)-2,7-naphthyridin-3-yl)cyclopropanecarboxamide]
≤ 100 nM	CNc1ncc(C(N)=O)c2cc(NC(=O)C3CC3)ncc12 [Example 123, 6-(cyclopropanecarboxamido)-1-(methylamino)-2,7-naphthyridine-4-carboxamide]
≤ 100 nM	CNc1ncc(-c2nc3cc(F)ccn3n2)c2cc(NC(=O)C3CC3)ncc12 [Example 194, N-(5-(7-fluoro-[1,2,4]triazolo[1,5-a]pyridin-2-yl)-8-(methylamino)-2,7-naphthyridin-3-yl)cyclopropanecarboxamide]
≤ 100 nM	CNc1ncc(-c2cn(C)c3ncccc23)c2cc(NC(=O)C3CC3)ncc12 [Example 107, N-(5-(1-methyl-1H-pyrrolo[2,3-b]pyridin-3-yl)-8-(methylamino)-2,7-naphthyridin-3-yl)cyclopropanecarboxamide]
≤ 100 nM	CNc1ncc(-c2nc3cc(N4CC(F)(F)C4)ccn3n2)c2cc(NC(=O)C3CC3)ncc12 [Example 189, N-(5-(7-(3,3-difluoroazetidin-1-yl)-[1,2,4]triazolo[1,5-a]pyridin-2-yl)-8-(methylamino)-2,7-naphthyridin-3-yl)cyclopropanecarboxamide]
100 to 1000 nM	CNc1ncc(-c2ccccc2)c2cc(Nc3ccccc3)ncc12 [Example 102]
1000 to 10000 nM	CNc1ncc(-c2ccccc2)c2cc(NCc3ccccc3)ncc12 [Example 99, N^6-benzyl-N^1-methyl-4-phenyl-2,7-naphthyridine-1,6-diamine]
1000 to 10000 nM	CNc1ncc(-n2ccccc2=O)c2cc(NC(=O)C3CC3)ncc12 [Example 61, N-(8-(methylamino)-5-(2-oxopyridin-1(2H)-yl)-2,7-naphthyridin-3-yl)cyclopropanecarboxamide]
≤ 100 nM	CNc1ncc(-c2nc3cccc(F)c3o2)c2cc(NC(=O)C3CC3)ncc12 [Example 185, N-(5-(7-fluorobenzo[d]oxazol-2-yl)-8-(methylamino)-2,7-naphthyridin-3-yl)cyclopropanecarboxamide]
